Two molecules from patent EP4721737A1, “USE OF PHARMACEUTICAL COMPOSITION COMPRISING COMPOUND HAVING BIS(AZANYLYLIDENE) SULFONYL STRUCTURE FOR TREATING ANEMIA-RELATED DISEASES” (Scinnohub Pharmaceutical Co., Ltd., priority 2023, dated 2024) can be followed below.

In data set [1] the target is T1, PKR in ex vivo red blood cells from healthy individuals (Homo sapiens, UniProt P30613).
T1 construct: endogenous in cells; host or cells: human red blood cells isolated from fresh peripheral blood of healthy individuals
T1 sequence (P30613 whole entry): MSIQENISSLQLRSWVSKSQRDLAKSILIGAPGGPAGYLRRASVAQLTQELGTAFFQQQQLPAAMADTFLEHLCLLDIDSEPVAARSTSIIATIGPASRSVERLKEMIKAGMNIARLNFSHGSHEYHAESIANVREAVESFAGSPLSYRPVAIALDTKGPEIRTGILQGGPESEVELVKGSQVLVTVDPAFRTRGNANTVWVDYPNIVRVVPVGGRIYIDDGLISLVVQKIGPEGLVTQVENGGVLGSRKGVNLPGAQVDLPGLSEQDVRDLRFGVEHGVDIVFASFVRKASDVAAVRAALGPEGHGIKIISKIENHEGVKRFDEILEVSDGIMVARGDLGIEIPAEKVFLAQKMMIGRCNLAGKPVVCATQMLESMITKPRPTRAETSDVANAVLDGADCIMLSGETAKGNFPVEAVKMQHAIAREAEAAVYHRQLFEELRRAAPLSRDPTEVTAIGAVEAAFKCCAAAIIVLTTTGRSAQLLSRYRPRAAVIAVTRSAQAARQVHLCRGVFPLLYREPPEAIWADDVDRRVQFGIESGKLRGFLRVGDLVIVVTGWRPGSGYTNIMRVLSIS
Description: ex vivo pyruvate kinase (PKR) activity experiment, red blood cells of healthy individuals. Conditions: 3 hours co-cultivation. The format is cell-based. The gist of the method: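 Washed, Percoll-purified human RBCs at 1 × 10^7 cells/mL were exposed to compound (final 1–3000 nM, 1% DMSO) for 3 h at 37°C, then lysed. PKR activity in lysate was followed kinetically by fluorescence at 540/590 nm over 1 h. Slope versus 1% DMSO control gave % activation; AC50 from variable-slope fit.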

Data set [2] in a line: pharmacokinetic properties test in mice. As to conditions: ICR mouse, single, plasma; for MRT last: read-out: MRT0-t; for Vd: read-out: Vss. The format is in vivo. As to the method:
The pharmacokinetic properties of the compounds of the present disclosure in different animal species were investigated by measuring plasma drug concentrations following intravenous and oral gavage in mouse, rat, and dog.
i. The compounds were weighed, then the solvent (5% DMSO + 10% Solutol + 85% saline) was added to prepare the administration solution. ii. On the day before the experiment, animals in the oral administration group were fasted overnight (10-14 hours) and fed 4 hours after administration. iii. At each time point after administration, approximately 30 µL of venous blood was collected from an appropriate location in each group of animals and placed in a sodium heparin tube. Blood samples were placed on ice and centrifuged within 1 hour to separate plasma (centrifugation conditions: 6800 g, 6 min, 2-8°C). Plasma samples were stored at -80°C until analysis.
b) An LC-MS/MS analytical method was developed for measuring compound concentrations in mouse, rat, and dog plasma. This method was used to determine compound concentrations in biological samples obtained in this assay.
Pharmacokinetic parameters were calculated using Phoenix WinNonlin 7.0 using plasma drug concentration data at different time points.

Where two headings read alike, the source gives them in different places.

In the case of `N#Cc1ccc(S(=O)(=O)N2CC(=C3CN(C(=O)[C@H](CO)c4ccccc4)C3)C2)cc1` [Compound 65, (S)-4-(1'-(3-hydroxy-2-phenylpropionyl)-1',4'-dihydro-2H,2'H-[3,3'-diazetidinylidene]-1(4H)-ylsulfonyl)benzonitrile], the concentration at half-maximal activity (AC50) in data set [1] is below 100 nM. In data set [2] (1 mg/kg intravenous injection), the AUC(0-t) is 679 ng·h/mL, the Cmax came out at 945 ng/mL, the Tmax was determined as 0.08 h and the clearance is 25.1 mL/min/kg. In data set [2] (1 mg/kg intravenous injection), the half-life is 1.3 h, the MRT last was 0.91 h and the Vd amounted to 1.5 L/kg. In data set [2] (10 mg/kg oral gavage, fasted), the exposure AUC(0-t) was 7880 ng·h/mL, the highest level (Cmax) was 4230 ng/mL, the Tmax was 0.33 h and the half-life was 1.75 h. In addition, in data set [2] (10 mg/kg oral gavage, fasted), the MRT last was 1.89 h.
Regarding `O=C([C@H](CO)c1ccc(F)cc1F)N1CC(=C2CN(S(=O)(=O)c3ccccn3)C2)C1` [Compound 83, (S)-2-(2,4-difluorophenyl)-3-hydroxy-1-(1'-(pyridin-2-ylsulfonyl)-1',4'-dihydro-2H,2'H-[3,3'-diazetidinylidene]-1(4H)-yl)propan-1-one], in data set [2] (1 mg/kg intravenous injection), the AUC(0-t) is 260 ng·h/mL, the highest level (Cmax) was 570 ng/mL, the Tmax turned out to be 0.08 h and the clearance was 62.9 mL/min/kg. In data set [2] (1 mg/kg intravenous injection), the half-life was 2.44 h, the MRT last was 1.33 h and the Vd amounted to 6.3 L/kg. In data set [2] (10 mg/kg oral gavage, fasted), the AUC(0-t) stood at 2010 ng·h/mL, the concentration peaked (Cmax) at 1440 ng/mL, the Tmax stood at 0.25 h and the half-life was 2.03 h. Moreover, the MRT last in data set [2] (10 mg/kg oral gavage, fasted) was found to be 1.71 h.

For orientation: AC50 means the concentration at which the activity in the assay is half-maximal. A higher AC50 goes with activity only at high concentration. One may read the AUC(0-t) as exposure summed from dosing to a finite time, without extrapolation to infinity. As a reminder, the Cmax is the peak of the concentration-time curve. A word on the Tmax: it is the time at which the peak concentration occurs. For orientation: clearance means the volume of plasma or blood freed of the substance per unit of time. A high value points to a high capacity for elimination. As usually defined, the half-life is how long it takes for the measured level to halve.
